PubChem BioAssay (NCI)
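96-well plates; 48 h exposure; 5 concentrations. Endpoints by linear interpolation between flanking doses. Not reached: highest tested concentration assigned. GI50 = concentration required for 50% inhibition of growth. TGI: total growth inhibition.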

Experiments:
Test in all cases: inhibition of tumour cell growth, NCI panel, 48 h
ACHN renal = test system: ACHN renal
CCRF-CEM leukemia = test system: CCRF-CEM leukemia
HCT-15 colon = test system: HCT-15 colon
HOP-92 NSCLC = test system: HOP-92 NSCLC
KM12 colon = test system: KM12 colon
NCI-H522 lung = test system: NCI-H522 lung
NCI/ADR-RES ovarian = test system: NCI/ADR-RES ovarian
OVCAR-4 ovarian = test system: OVCAR-4 ovarian
RXF 393 renal = test system: RXF 393 renal
U251 CNS = test system: U251 CNS

| SMILES | GI50 (ACHN renal) [µM] | TGI (ACHN renal) [µM] | GI50 (CCRF-CEM leukemia) [µM] | TGI (CCRF-CEM leukemia) [µM] | GI50 (HCT-15 colon) [µM] | TGI (HCT-15 colon) [µM] | GI50 (HOP-92 NSCLC) [µM] | TGI (HOP-92 NSCLC) [µM] | GI50 (KM12 colon) [µM] | TGI (KM12 colon) [µM] | GI50 (NCI-H522 lung) [µM] | TGI (NCI-H522 lung) [µM] | GI50 (NCI/ADR-RES ovarian) [µM] | TGI (NCI/ADR-RES ovarian) [µM] | GI50 (OVCAR-4 ovarian) [µM] | TGI (OVCAR-4 ovarian) [µM] | GI50 (RXF 393 renal) [µM] | TGI (RXF 393 renal) [µM] | GI50 (U251 CNS) [µM] | TGI (U251 CNS) [µM] |
| --- | --- | --- | --- | --- | --- | --- | --- | --- | --- | --- | --- | --- | --- | --- | --- | --- | --- | --- | --- | --- |
| Cc1cc(O)ccc1C1(c2ccc(O)cc2C)OC(=O)c2ccccc21 | 16 | 31.8 | 24.4 | 67.7 | 16.3 | 30.7 | 15.4 | 29.7 | 18.8 | 37.7 | 18.5 | 35 | 21.1 | 49.6 | 16.4 | 30.8 | 18.5 | 33.9 | 19.9 | 36.6 |
| CC(=O)OC(COc1ccc2c(c1)[n+]([O-])nc(N)[n+]2[O-])CN1CCCCC1 (stereo not drawn) |  | 39.3 |  | 79.3 |  | 31.6 |  | > 100 |  | 50.4 |  | 38.7 |  | > 100 |  | > 100 |  | > 100 |  | 43 |
| CCN1CCN(Cc2ccc(Nc3ncc(F)c(-c4cc(F)c5nc(C)n(C(C)C)c5c4)n3)nc2)CC1 | 0.172 | 9.56 | 1.14 | 15 | 0.47 | 11.7 | 0.0337 | 50 | 0.56 | 9.29 | 8.92 | 18.1 | 10.4 | 26.2 | 6.49 | 16.2 | 0.389 | 8.34 | 0.317 | 11.6 |
| Cc1[nH]c(C(=O)Nc2cccc(OC3CCNCC3)c2)c(Cl)c1Cl | 1.75 | 3.17 | 1.92 | 4.26 | 1.73 | 3.36 | 1.32 | 4 | 1.93 | 3.73 | 1.86 | 4.02 | 1.84 | 3.47 | 2.6 | 6.76 | 1.74 | 3.46 | 1.93 | 4.19 |
| CO/N=C(/C)COc1ccc2c(c1)oc(=O)c1cc(OC)ccc12 | 75 | > 100 | > 100 | > 100 | > 100 | > 100 | > 100 | > 100 | > 100 | > 100 | > 100 | > 100 | > 100 | > 100 | 47.1 | > 100 | > 100 | > 100 | > 100 | > 100 |
| Cn1c2c(c3ccccc31)CCN1C[C@@H]3CCCC[C@H]3C[C@@H]21 | 4.32 | > 100 | 4.77 | > 100 | 2.55 | > 100 | 3.44 | 34.2 | 2.97 | 9.97 | 1.74 | 4.44 | 0.928 | 9.7 | 4.36 | > 100 | 0.964 | 7.47 | 2.51 | > 100 |
| Cc1cc(S(=O)(=O)Nc2nc3ccccc3c(=O)n2Cc2ccco2)c(S)cc1Cl | 49.8 | > 100 | 29.2 | > 100 | 55 | > 100 | > 100 | > 100 | 30.1 | > 100 | 37.4 | > 100 | 54.8 | > 100 | 87.7 | > 100 | 61.7 | > 100 | 45.8 | > 100 |
| COc1cccc2nc(Nc3cccc(NC(=O)c4ccc(N5CCN(C)CC5)c(C(F)(F)F)c4)c3)ccc12 | 1.53 | 4.57 | 1.4 | 50 | 0.937 | 2.03 | 0.854 | 4.03 | 1.09 | 2.56 | 1.04 | 2 | 1.5 | 4.95 | 1.43 | 6.67 | 0.802 | 2.96 | 0.885 | 1.68 |
| C[n+]1cccc(NC(=O)c2ccc3ccc4ccc(C(=O)Nc5ccc[n+](C)c5)nc4c3n2)c1 | 4.75 | > 100 | 5.56 | > 100 | 3.37 | > 100 | 7.15 | > 65.1 | 3.08 | > 100 | 0.645 | 23 | > 100 | > 100 | 7.37 | > 100 | 1.98 | 4.75 | 2.23 | > 100 |
| CS(=O)(=O)Nc1cc(-c2ccc3ncc(C#N)c(Nc4ccc(F)c(Cl)c4)c3c2)cnc1Cl | 0.304 | > 100 | 0.0911 | > 31 | 0.167 | 4.91 | 0.0333 | 0.61 | 0.276 | 1.91 | 0.113 | 1.46 | 0.633 | > 100 | 0.243 |  | 0.125 | 0.6 | 0.098 | 1.19 |
| COc1ccc2[nH]c(C(=O)OCc3ccc4c(Br)cc(Br)c(O)c4n3)cc2c1 | 0.343 | 1.35 | 0.331 | > 100 | 0.355 | 1.23 | 0.352 | 1.75 | 1.64 | 3.38 | 0.395 | 1.82 | 1.68 | 7.3 | 0.895 | 2.25 | 0.486 | 1.8 | 1.49 | 2.92 |
| N#CC1=C(N)N=C(N2CCOCC2)C(C#N)C12Nc1ccccc1S2 (stereo not drawn) | 21.8 | 76 |  |  | 29.1 | > 100 | 41.3 | > 100 | 15 | 33.6 | 17.6 | 51.5 | 39.3 | 75.9 |  |  | 19 | > 100 | 27.8 | > 100 |
| Cc1ccc(NC(=S)NNC(=S)Nc2ccc(C)cc2)cc1 | 9.7 | > 100 |  |  | 5.15 | > 100 | 6.43 | > 100 | 3.63 | > 100 | 2.03 | 5.83 | 2.55 | 8.52 | > 100 | > 100 | 5.56 | > 100 | 5.16 | > 100 |
